Reference: patent publication US10961202B2, “Bis-benzimidazole compounds and methods of using the same” (THE SCRIPPS RESEARCH INSTITUTE, priority 2017, dated 2021)

What follows are compounds tested on r(CUG)12-MBNL1 complex (assay: Inhibition of the r(CUG)12-MBNL1 complex measured by TR-FRET). Settings: Table L; 80 nM RNA, 60 nM MBNL1-His6.
Assay type: biochemical

Compared with `Nc1ccc2nc(-c3ccc(-c4nc5ccc(N)cc5[nH]4)cc3)[nH]c2c1` [Compound 2, 2,2′-(1,4-phenylene)bis(1H-benzo[d]imidazol-6-amine)], `CC(=O)Nc1ccc2nc(-c3ccc(-c4nc5ccc(N)cc5[nH]4)cc3)[nH]c2c1` [Compound 4, N-(2-(4-(5-amino-1H-benzo[d]imidazol-2-yl)phenyl)-1H-benzo[d]imidazol-5-yl)acetamide] is higher in IC50: 197 µM for the first, over 200 µM for the second.

Going from `N=C(N)Nc1ccc2nc(-c3ccc(-c4nc5ccc(NC(=N)N)cc5[nH]4)cc3)[nH]c2c1` [Compound 3, 1,1′-(2,2′-(1,4-phenylene)bis(1H-benzo[d]imidazole-6,2-diyl))diguanidine] to `CC(=O)Nc1ccc2nc(-c3ccc(-c4nc5ccc(NC(C)=O)cc5[nH]4)cc3)[nH]c2c1` [Compound 6, N,N′-(2,2′-(1,4-phenylene)bis(1H-benzo[d]imidazole-5,2-diyl))diacetamide], the IC50 rises from 27 µM to 112 µM (4.1-fold). The first is the more potent here.

`Nc1ccc2nc(-c3ccc(-c4nc5ccc(Nc6ncccn6)cc5[nH]4)cc3)[nH]c2c1` [Compound 5, 2-(4-(5-amino-1H-benzo[d]imidazol-2-yl)phenyl)-N-(pyrimidin-2-yl)-1H-benzo[d]imidazol-5-amine] and `CC(=O)Nc1ccc2nc(-c3ccc(-c4nc5ccc(Nc6ncccn6)cc5[nH]4)cc3)[nH]c2c1` [Compound 7, N-(2-(4-(5-(pyrimidin-2-ylamino)-1H-benzo[d]imidazol-2-yl)phenyl)-1H-benzo[d]imidazol-5-yl)acetamide] are within 1.5-fold of each other in IC50: 76 µM for the first, 80 µM for the second.

Going from `c1cnc(Nc2ccc3nc(-c4ccc(-c5nc6ccc(Nc7ncccn7)cc6[nH]5)cc4)[nH]c3c2)nc1` [Compound 8, 2,2′-(1,4-phenylene)bis(N-(pyrimidin-2-yl)-1H-benzo[d]imidazol-5-amine)] to `COC(=O)c1ccc2nc(-c3ccc(-c4nc5ccc(C(=O)OC)cc5[nH]4)cc3)[nH]c2c1` [Compound 10, dimethyl 2,2′-(1,4-phenylene)bis(1H-benzo[d]imidazole-6-carboxylate)], the IC50 rises from 150 µM to over 200 µM. The first is the more potent here.

Going from `N#Cc1ccc2nc(-c3ccc(-c4nc5ccc(C#N)cc5[nH]4)cc3)[nH]c2c1` [Compound 9, 2,2′-(1,4-phenylene)bis(1H-benzo[d]imidazole-6-carbonitrile)] to `O=C(O)c1ccc2nc(-c3ccc(-c4nc5ccc(C(=O)O)cc5[nH]4)cc3)[nH]c2c1` [Compound 11, 2,2′-(1,4-phenylene)bis(1H-benzo[d]imidazole-6-carboxylic acid)], the IC50 rises from 26 µM to over 200 µM. The first is the more potent here.

In the case of `NC(=O)c1ccc2nc(-c3ccc(-c4nc5ccc(C(N)=O)cc5[nH]4)cc3)[nH]c2c1` [Compound 12, 2,2′-(1,4-phenylene)bis(1H-benzo[d]imidazole-6-carboxamide)], the IC50 is reported as over 200 µM.

Same assay, conditions: Table M; 80 nM RNA, 60 nM MBNL1-His6

Going from `C[C@@H](NC(=O)CN(CCN)C(=O)c1ccc(-c2nc3cc(-c4ccc5[nH]c(-c6ccc(C(=O)NCCN(C)C)cc6)nc5c4)ccc3[nH]2)cc1)C(=O)N[C@H](C)C(=O)N[C@H](C)C(=O)N[C@H](C)C(=O)N(CCNC(=O)c1ccc(-c2nc3cc(-c4ccc5[nH]c(-c6ccc(C(=O)NCCN(C)C)cc6)nc5c4)ccc3[nH]2)cc1)CC(N)=O` (single isomer, unassigned) [Compound 443] to `C[C@@H](NC(=O)CNCCNC(=O)c1ccc(-c2nc3cc(-c4ccc5[nH]c(-c6ccc(C(=O)NCCN(C)C)cc6)nc5c4)ccc3[nH]2)cc1)C(=O)N[C@H](C)C(=O)N[C@H](C)C(=O)N[C@H](C)C(=O)N(CCNC(=O)c1ccc(-c2nc3cc(-c4ccc5[nH]c(-c6ccc(C(=O)NCCN(C)C)cc6)nc5c4)ccc3[nH]2)cc1)CC(N)=O` (single isomer, unassigned) [Compound 444], the IC50 rises from 8 µM to 13 µM (1.6-fold). The first is the more potent here.

In the case of `CN(CCNC(=O)c1ccc2nc(-c3ccc(-c4nc5ccc(C(=O)NCCN(C)C[C@H](O)[C@@H](O)[C@H](O)[C@H](O)CO)cc5[nH]4)cc3)[nH]c2c1)CC(O)C(O)C(O)C(O)CO` (stereo in doubt) [Compound 175, 2,2′-(1,4-phenylene)bis(N-(2-(methyl((2S,3R,4R,5R)-2,3,4,5,6-pentahydroxyhexyl)amino)ethyl)-1H-benzo[d]imidazole-6-carboxamide)], the IC50 is reported as 49.1 µM.
